The text below walks through data of patent publication US6100291A, “Pyrrolidine-indole compounds having 5-HT6 affinity” (Allelix Biopharmaceuticals Inc., priority 1998, dated 2000).

In one assay the target is T1, human 5-HT2C receptor (Homo sapiens, UniProt P28335).
T1 sequence (P28335 33-458): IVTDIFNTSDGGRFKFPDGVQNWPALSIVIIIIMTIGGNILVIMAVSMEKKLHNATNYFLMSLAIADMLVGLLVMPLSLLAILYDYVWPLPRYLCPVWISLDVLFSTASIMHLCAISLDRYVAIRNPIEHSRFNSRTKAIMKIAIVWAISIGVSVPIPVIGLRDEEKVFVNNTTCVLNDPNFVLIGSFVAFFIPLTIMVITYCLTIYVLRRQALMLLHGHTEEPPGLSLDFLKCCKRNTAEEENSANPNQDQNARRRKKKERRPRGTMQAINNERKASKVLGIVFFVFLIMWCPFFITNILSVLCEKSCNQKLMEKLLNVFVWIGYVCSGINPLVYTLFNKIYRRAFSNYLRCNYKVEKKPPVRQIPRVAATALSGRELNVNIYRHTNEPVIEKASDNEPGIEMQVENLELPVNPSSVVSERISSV
The experiment in a line: Binding selectivity for 5-HT6 relative to the human 5-HT2C receptor. The settings on record: 5-HT6 vs human 5-HT2C receptor.

For another assay, the target named is human 5-HT7 receptor (Homo sapiens, UniProt P34969). In words: Binding selectivity for 5-HT6 relative to the human 5-HT7 receptor. The settings on record: 5-HT6 vs human 5-HT7 receptor.
Assay [1] concerns the target T2, human 5-HT6 receptor (Homo sapiens, UniProt P50406).
T2 construct: expressed in transfected cells
The experiment in a line: Binding affinity for the 5-HT6 receptor (3H-LSD radioligand binding, membranes of cells expressing the 5-HT6 receptor). The settings on record: 60 minute incubation at 37° C. The procedure:
All of the compounds of the invention were evaluated using cell types receptive specifically to the 5-HT6 receptor (for cloning and characterization of the human 5-HT6 receptor see Kohen, et al. J. Neurochemistry, 66, 1996: 47-56). […] After a 60 minute incubation at 37° C., the incubation was terminated by vacuum filtration. The filters were washed with buffer and the filters were counted for radioactivity using liquid scintillation spectrometry. The affinity of the test compound for the 5-HT6 receptor was determined by computer-assisted analysis of the data and determining the amount of the compound necessary to inhibit 50% of the binding of the radioligand to the receptor. Concentrations ranging from 10^-11 M to 10^-5 M of the test compound were evaluated.

Assay [2] addresses T2, human 5-HT6 receptor. The experiment in a line: Effect on the cAMP response of human 5-HT6 receptors in stably transfected HEK293 cells (EIA). Type of assay: cell-based.
Experimental: The antagonist (or agonist) property of compounds for human 5-HT6 receptors was determined by testing their effect on cAMP accumulation in stably transfected HEK293 cells.
Binding of an agonist to the human 5-HT6 receptor will lead to a increase in adenyl cyclase activity. A compound which is an agonist will show an increase in cAMP production and a compound which is an antagonist will block the agonist effect.
Cell Assay: Human 5-HT6 receptors were cloned and stably expressed in HEK293 cells. These cells were plated in 6 well plates in DMEM/F12 media with 10% fetal calf serum (FCS) and 500 μg/mL G418 and incubated at 37° C. in a CO2 incubator. The cells were allowed to grow to about 70% confluence before initiation of the experiment.
On the day of the experiment, the culture media was removed, and the cells were washed once with serum free medium (SFM). Two mL of SFM+IBMX media was added and incubated at 37° C. for 10 min. The media were removed and fresh SFM+IBMX media containing various compounds, and 1 μM serotonin (as antagonist) were added to the appropriate wells and incubated for 30 min. Following incubation, the media were removed and the cells were washed once with 1 mL of PBS (phosphate buffered saline). Each well was treated with 1 mL cold 95% ethanol and 5 mM EDTA (2:1) at 4° C. for 1 hour. The cells were then scraped and transferred into Eppendorf tubes. The tubes were centrifuged for 5 min at 4° C., and the supernatants were stored at 4° C. until assayed.
cAMP Measurement: cAMP content was determined by EIA (enzyme-immunoassay) using the Amersham Biotrak cAMP EIA kit (Amersham RPN 225). The procedure used is as described for the kit. Briefly, cAMP is determined by the competition between unlabeled cAMP and a fixed quantity of peroxidase-labelled cAMP for the binding sites on anti-cAMP antibody. The antibody is immobilized onto polystyrene microtitre wells precoated with a second antibody. […] The reaction is stopped by the addition of 100 μL 1.0 M sulphuric acid and the resultant color read by a microtitre plate spectrophotometer at 450 nM within 30 minutes. […]

Where two headings read alike, the source gives them in different places.

Broadly, the Ki is a measure of affinity in units of concentration, obtained from inhibition or displacement. For orientation: EC50 means the concentration at which the effect is half-maximal. Low readings indicate higher potency in that assay, high ones lower potency in that assay.

T2 sequence (P50406 whole entry): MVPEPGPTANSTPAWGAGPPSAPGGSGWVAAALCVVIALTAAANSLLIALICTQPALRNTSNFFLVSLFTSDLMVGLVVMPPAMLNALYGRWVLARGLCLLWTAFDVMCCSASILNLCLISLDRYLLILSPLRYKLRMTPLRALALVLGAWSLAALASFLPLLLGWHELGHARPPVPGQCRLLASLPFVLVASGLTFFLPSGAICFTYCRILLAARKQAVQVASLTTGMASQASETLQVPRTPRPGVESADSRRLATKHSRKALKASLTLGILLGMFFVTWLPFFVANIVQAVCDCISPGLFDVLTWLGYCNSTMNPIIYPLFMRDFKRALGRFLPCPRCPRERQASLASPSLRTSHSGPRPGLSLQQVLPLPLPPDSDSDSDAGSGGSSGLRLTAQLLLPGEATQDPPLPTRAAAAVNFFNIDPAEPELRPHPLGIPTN
Chain of human 5-HT7 receptor (P34969 whole entry): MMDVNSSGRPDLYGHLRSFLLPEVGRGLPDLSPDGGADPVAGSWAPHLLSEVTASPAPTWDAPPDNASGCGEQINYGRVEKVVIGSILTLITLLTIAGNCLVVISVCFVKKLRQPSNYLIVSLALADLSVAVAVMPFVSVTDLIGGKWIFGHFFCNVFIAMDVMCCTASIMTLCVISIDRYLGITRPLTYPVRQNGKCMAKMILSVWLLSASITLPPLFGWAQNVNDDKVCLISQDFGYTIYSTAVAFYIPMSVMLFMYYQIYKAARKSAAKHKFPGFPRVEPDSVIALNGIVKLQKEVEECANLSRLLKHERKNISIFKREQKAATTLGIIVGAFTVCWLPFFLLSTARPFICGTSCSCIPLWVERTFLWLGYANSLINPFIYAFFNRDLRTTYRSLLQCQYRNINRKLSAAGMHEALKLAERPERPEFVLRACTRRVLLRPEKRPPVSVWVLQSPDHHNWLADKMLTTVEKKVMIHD

In the case of `CN1CCC[C@@H]1Cc1cn(C(=O)c2c(Cl)cccc2Cl)c2ccc(OC3CCCCC3)cc12` [Example 5n, (R)-5-Cyclohexyloxy-1-(2,6-dichlorobenzoyl)-3-(1-methyl-2-pyrrolidinylmethyl)indole], on human 5-HT2C receptor, the “greater affinity for human 5-HT6 receptor relative to human 5-HT2C” value is on record as no less than 36 fold. Besides, on human 5-HT7 receptor, the “greater affinity for human 5-HT6 receptor relative to human 5-HT7” value is given as no less than 36 fold.
As for `Cc1ccc(S(=O)(=O)n2cc(C[C@H]3CCCN3C)c3cc(F)ccc32)cc1` [Example 7c, (R)-5-Fluoro-1-(4-methylphenylsulphonyl)-3-(1-methyl-2-pyrrolidinylmethyl)-indole], at human 5-HT6 receptor [1] (Ki), the Ki was no more than 1 nM.
On the same count and under the same terms, for `CN1CCC[C@@H]1Cc1cn(C(=O)c2ccccc2)c2ccc(Cl)cc12` [Example 5p, (R)-1-Benzoyl-5-chloro-3-(1-methyl-2-pyrrolidinylmethyl)indole] the value was no more than 1 nM.
For the molecule `CN1CCC[C@@H]1Cc1cn(C(=O)c2ccccc2Cl)c2ccc(OC3CCCCC3)cc12` [Example 5j, (R)-1-(2-Chlorobenzoyl)-5-cyclohexyloxy-3-(1-methyl-2-pyrrolidinylmethyl)indole], the EC50 at human 5-HT6 receptor [2] was 64 nM.
At human 5-HT6 receptor [1] (Ki), `CN1CCC[C@@H]1Cc1cn(C(=O)c2ccccc2)c2ccccc12` [Example 5g, (R)-1-Benzoyl-3-(1-methyl-2-pyrrolidinylmethyl)indole] came in with a Ki of no more than 10 nM.
Regarding `CN1CCC[C@@H]1Cc1cn(S(=O)(=O)c2ccccc2)c2ccc(O)cc12` [Example 10, (R)-1-Phenylsulfonyl-5-hydroxy-3-(1-methyl-2-pyrrolidinylmethyl)indole], on human 5-HT6 receptor [1] (Ki), the Ki is no more than 10 nM.
The same measure, in the same setting: for `CN1CCC[C@@H]1Cc1cn(C(=O)c2ccccc2)c2ccc(OC3CCCCC3)cc12` [Example 7a, (R)-5-Cyclohexyloxy-3-(1-methyl-2-pyrrolidinylmethyl)-1-benzoylindole] the value was no more than 10 nM.
As to `CN1CCC[C@@H]1Cc1cn(S(=O)(=O)c2ccccc2)c2ccc(Cl)cc12` [Example 5d, (R)-5-Chloro-3-(1-methyl-2-pyrrolidinylmethyl)-1-phenylsulfonylindole], the Ki at human 5-HT6 receptor [1] (Ki) was no more than 1 nM. On human 5-HT6 receptor [2], this molecule displayed an EC50 of 8.4 nM.
Take `CN1CCC[C@@H]1Cc1cn(S(=O)(=O)c2ccccc2)c2ccc(OC3CCCCC3)cc12` [Example 4, (R)-5-Cyclohexyloxy-3-(1-methyl-2-pyrrolidinylmethyl)-1-phenylsulfonylindole]: the Ki at human 5-HT6 receptor [1] (Ki) is no more than 1 nM.
Take `CN1CCC[C@@H]1Cc1cn(S(=O)(=O)c2ccccc2)c2ccc(OCc3ccccc3)cc12` [Example 7e, (R)-5-Benzyloxyindole-3-(1-methyl-2-pyrrolidinylmethyl)-1-phenylsulfonylindole]: the Ki on human 5-HT6 receptor [1] (read-out: Ki) was no more than 1 nM.
With `CN1CCC[C@@H]1Cc1cn(C(=O)c2ccccc2)c2ccc(Br)cc12` [Example 7d, (R)-1-Benzoyl-5-bromo-3-(1-methyl-2-pyrrolidinylmethyl) indole], the Ki at human 5-HT6 receptor [1] (Ki) is no more than 1 nM.
As to `CN1CCC[C@@H]1Cc1cn(C(=O)c2ccc(F)cc2)c2ccc(Cl)cc12` [Example 5r, (R)-5-Chloro-1-(4-fluorobenzoyl)-3-(1-methyl-2-pyrrolidinylmethyl)indole], on human 5-HT2C receptor, the “greater affinity for human 5-HT6 receptor relative to human 5-HT2C” value was no less than 36 fold. Moreover, on human 5-HT7 receptor, the “greater affinity for human 5-HT6 receptor relative to human 5-HT7” value was no less than 36 fold. For the same molecule, the EC50 at human 5-HT6 receptor [2] came to 6 nM.
